Data on 5 compounds can be found in patent US7893289B2, “Adamantanamines and neramexane salts of thiomolybdic and thiotungstic acids” (SSV Therapeutics, Inc., priority 2007, dated 2011).

One data set has as its system NMDA receptor. Nature of the data set: Blockage of NMDA-induced seizure activity and lethality in mice pretreated with the antagonist. The format is in vivo. The note with it: for mice survived following NMDA induced seizures: male CD-1 mice, groups of 5, sc 20 min before NMDA 200 mg/kg IP, 4 h observation, highest equivalent memantine dose (memantine hydrochloride 30 mg/kg sc); for protection in the NMDA-induced seizure/mortality test: sc, Example 4 at equivalent memantine dose, Examples 1 and 2 administered as suspensions. The text has this: Briefly, the test measures blockage of seizure activity and lethality in mice produced by the administration of NMDA when pretreated with the antagonists. [see Leander, J. D., et al., Brain Res. 448, 115-120 (1988) and Parsons, C. G., et al., Neuropharmacol 34, 1239-1258; (1995)].
Test protocol: Groups of 5 male CD-1 mice weighing 24±2 g were used. Male CD-1 (Crl.) mice were provided by BioLasco Taiwan (under Charles River Laboratories Technology License). Space allocations for animals were as follows: 29×18×13 cm for 5 mice. Mice were maintained in a controlled temperature (22° C.-24° C.) and humidity (60%-80%) environment with 12 h light/dark cycles for at least one week in MDS Pharma Services—Taiwan Laboratory prior to use. Free access to standard lab chow for mice [MF-18 (Oriental Yeast Co., Ltd., Japan)] and RO water was granted. [All aspects of this work including housing, experimentation and disposal of animals were performed in general accordance with the Guide for the Care and Use of Laboratory Animals (National Academy Press, Washington, D.C., 1996).]
Test substance was administered by subcutaneous (sc) injection 20 min before challenge with NMDA 200 mg/kg by intraperitoneal injection (IP). The animals were placed individually in glass jars and observed over a period of 4 h for presence of clonic convulsions, tonic convulsions and mortality. The onset of clonic and tonic convulsions as well as death was recorded and incidence of clonic seizures, tonic seizures and death was reported. Inhibition of NMDA (200 mg/kg, IP)-induced tonic convulsions/mortality (mainly mortality) in more than 50 percent (>50%) of the 5 mice during the following 4 h indicates possible NMDA receptor antagonist activity. Memantine hydrochloride at 30 mg/kg sc was used as positive control.
The vehicle used for dissolution was 20% aqueous DMSO.

Data set [1] can be described thus: Solubility in the dosing vehicle (20% aqueous DMSO). The format is physicochemical.
The conditions of data set [2]: ambient conditions in air and humidity, after 50 days; cited from earlier work.

As for `CC12CC3CC(C)(C1)CC([NH3+])(C3)C2.CC12CC3CC(C)(C1)CC([NH3+])(C3)C2.[S]=[Mo](=[S])([S-])[S-]` [Example 3, Bis(1-ammonium-3,5-dimethyladamantane) tetrathiomolybdate], the “more effective than memantine at an equivalent dose” value in the data set on NMDA receptor (NMDA-induced clonic seizures and mortality in mice, equivalent dose (30 mg)) turned out to be 40%. Besides, in the data set on NMDA receptor, the “mice survived following NMDA induced seizures” value is 4/5. For the same compound, the “inhibition of NMDA-induced clonic seizures and mortality” value in the data set on NMDA receptor (mice, sc pretreatment at three doses, NMDA 200 mg/kg IP) is listed as “in a dose dependent manner”. Besides, the time to seizures result with NMDA receptor (mice, highest equivalent memantine dose, compared with memantine) is listed as “notably prolonged”. Besides, the “protection from tonic seizures” value in the data set on NMDA receptor (mice, low, medium and high doses, without DMSO solvate, similar to the high dose of memantine) is recorded as “protected from tonic seizures”.
`CC1(C)CC(C)(C)CC(C)([NH3+])C1.CC1(C)CC(C)(C)CC(C)([NH3+])C1.[S]=[Mo](=[S])([S-])[S-]` [Example 4, Bis(1-ammonium-1,3,3,5,5-pentamethylcyclohexane)tetrathiomolybdate]: in the data set on NMDA receptor (mice), the “protection in the NMDA-induced seizure/mortality test” value is on record as “complete protection”.
Take “Bis(1-methylammoniumadamantane) tetrathiomolybdate [Example 2]”: the “solubility in the vehicle” value in data set [1] is “inadequate solubility”. In addition, the “protection in the NMDA-induced seizure/mortality test” value in the data set with NMDA receptor (mice) is on record as “not protective”.
In the case of `[NH4+].[NH4+].[SH-].[SH-].[S]=[Mo]=[S]` [TM, diammonium tetrathiomolybdate], in data set [2], the loss in activity is around 55%.
As to `CC12CC3CC(C)(C1)CC(N)(C3)C2` [memantine, 1-amino-3,5-dimethyladamantane, reference compound], the “mice survived following NMDA induced seizures” value in the data set on NMDA receptor is 5/5.
